From patent publication US20140072573A1, “METHOD OF TREATING RHEUMATOID ARTHRITIS” (Institut National de la Sante et de la Recherche Medicale …, priority 2012, published 2014)
Entries after “also recorded” stand apart in the source; their conditions may differ.

What was measured:
Format in all cases: cell-based, human
VE-cadherin [1] = experiment: VE-cadherin extracellular fragment (VE-90) release in HUVEC conditioned media, western blot; conditions: for effect on TNFα-induced VE-90 release: 15 min pre-treatment, TNFα 100 ng/ml 45 min
Method: (§1) Cell culture, extraction and immunoprecipitation: Endothelial cells were obtained from human umbilical vein (HUVECs) and grown to reach confluence in M199 medium supplemented with 10% fetal bovine serum (FCS), 2% Low Serum Growth Supplement LSGS (Cascade Biologics, USA) as previously described (Garnier-Raveaud et al., 2001). The 80% confluent HUVECs (passages 2 or 4) were used for most experiments. Confluent cells in 60 mm dishes were serum-starved in 1% fetal calf serum in M 199 for 24 h prior to testing. Before TNFα stimulation the cells were serum-starved for 2 hours, and then pre-treated for 15 min with sodium pervanadate (10 μM) and/or inhibitors as mentioned in text and figure legends. HUVECs were then stimulated with different concentrations of TNFα for various lengths of time as indicated. Otherwise, in most parts of this study, precisely in inhibition experiments TNFα was used at high concentration (i.e 100 ng/mL). As the inhibitors were diluted in dimethyl-sulfoxide (DMSO), control cells were systematically treated with DMSO 0.1% in any inhibition experiment.
For conditioned medium analysis, the medium was collected and centrifuged for 15 minutes at 14,000 g at 4° C. The resulting supernatant was collected and proteins were concentrated by trichloro acetic acid precipitation (10%) overnight. After centrifugation at 14,000 g for 30 min, the pellet was re-suspended in Tris 50 mM (pH 11) and analyzed by SDS-PAGE and Western blotting.
(§2) Western blotting: Proteins were resolved by SDS-PAGE and transferred to nitrocellulose.

VE-cadherin [2] = experiment: VE-cadherin cytoplasmic fragment (VE-cyto) and 125 kDa full length protein in HUVEC extracts, western blot; conditions: for effect on TNFα-induced VE-cyto generation: L685 present
Method: as §1
(§3) Cells stimulation was stopped by medium collection and addition of 500 μl of ice-cold buffer A. The cells were harvested, homogenized and sonicated for 20 seconds. Cell lysates were collected after centrifugation for 15 min at 40° C. at 14,000 g. The protein concentration was measured using the micro-bicinchoninic acid protein assay and cell lysates were stored at −80° C. before use.
as §2

HUVECs = experiment: Cell viability of treated HUVECs
VE-cadherin [3] = experiment: VE-cadherin tyrosine phosphorylation in HUVEC lysates, immunoprecipitation and phosphotyrosine western blot; conditions: 50 μM, TNFα 100 ng/ml
Method: as §1
as §3, with “Cell lysates were collected after centrifugation for 15 min at 40° C. at 14,000 g.” left out, “use. […]” for “use.”

CNC(=O)[C@H](Cc1c[nH]c2ccccc12)NC(=O)[C@@H](CC(=O)NO)CC(C)C [GM6001]
effect on TNFα-induced VE-90 release (VE-cadherin [1]; 10 μM): drastically decreased | effect on TNFα-induced VE-cyto generation (VE-cadherin [2]; 10 μM pre-treatment): almost completely abrogated | cell viability (HUVECs; 10 μM): without affecting cell viability

CC(C)(C)n1nc(-c2ccc(Cl)cc2)c2c(N)ncnc21 [PP2]
effect on TNFα-induced VE-90 release (VE-cadherin [1]; 10 μM): strongly decreased | effect on TNFα-induced VE-cyto generation (VE-cadherin [2]; 10 μM pre-treatment): strongly impaired | cell viability (HUVECs; 10 μM): without affecting cell viability

O=c1c(-c2ccc(O)cc2)coc2cc(O)cc(O)c12 [genistein]
effect on TNFα-induced VE-cadherin tyrosine phosphorylation (VE-cadherin [3]): inhibited | effect on TNFα-induced VE-90 release (VE-cadherin [1]; 50 μM): strongly decreased | effect on TNFα-induced VE-cyto generation (VE-cadherin [2]; 50 μM pre-treatment): strongly impaired | effect on VE-cyto generation with or without pervanadate pre-treatment (VE-cadherin [2]; both conditions (pervanadate pre-treated or not), TNFα): still decreased | cell viability (HUVECs; 50 μM): without affecting cell viability

TNFα
VE-90 release versus TNFα concentration (VE-cadherin [1]; HUVECs, TNFα 0 up to 10 ng/ml, 45 min): increased in a dose-dependent manner; also recorded: dose-dependent release | time of TNFα stimulation after which VE-90 was detected (VE-cadherin [1]; HUVECs, TNFα 100 ng/ml): 10 min | VE-90 release in conditioned media over time (VE-cadherin [1]; HUVECs, TNFα 100 ng/ml, 5 to 60 min): time-dependent release; also recorded: increased in a time-dependent manner up to 60 min | low TNFα concentration at which VE-90 release was early detected (VE-cadherin [1]; HUVECs, dose-response 0 up to 10 ng/ml, 45 min): 0.5 ng/mL | appearance of VE-cyto upon TNFα challenge (VE-cadherin [2]; HUVEC extracts, γ-secretase inhibitor L685 present, TNFα 100 ng/ml): clearly detected

sodium pervanadate
effect on VE-cyto generation upon cytokine treatment (VE-cadherin [2]; pervanadate pre-treated versus non pre-treated HUVECs): tremendous increase
